biological target: wt human LRRK2, catalytic site (Homo sapiens (Human), UniProt Q5S007); assay: TR-FRET LanthaScreen Tb Kinase Activity Assay (LRRK2 kinase inhibition); format: biochemical; conditions: 2 nM wt human LRRK2, 400 nM fluorescein-ERM (LRRKtide) peptide, 38 μM ATP, 120 minutes at room temperature
Procedure, shortened: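 LanthaScreen TR-FRET with 2 nM wt human LRRK2 catalytic site, 400 nM fluorescein-ERM (LRRKtide) peptide and 38 µM ATP in Kinase Buffer A; 120 min at room temperature. Phosphorylation detected with EDTA and Tb-anti-pLRRKtide after 60 min; IC50 from emission ratios.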

Chain of wt human LRRK2, catalytic site (Q5S007 1879-2138): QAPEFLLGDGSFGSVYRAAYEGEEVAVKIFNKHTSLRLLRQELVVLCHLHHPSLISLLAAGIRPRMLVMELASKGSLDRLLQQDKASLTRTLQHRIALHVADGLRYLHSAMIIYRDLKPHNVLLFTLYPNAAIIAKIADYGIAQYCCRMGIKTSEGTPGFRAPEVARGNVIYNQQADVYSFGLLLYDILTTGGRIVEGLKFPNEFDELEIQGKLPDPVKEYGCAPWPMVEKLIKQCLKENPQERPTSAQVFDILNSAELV

SMILES	IC50 [nM]
CCS(=O)(=O)n1ncc2c(Nc3ncc(C(F)(F)F)c(NC4CC4)n3)cccc21 [Example 143, N^4-cyclopropyl-N^2-(1-ethylsulfonylindazol-4-yl)-5-(trifluoromethyl)pyrimidine-2,4-diamine]	< 50
CNc1nc(Nc2cccc3nccn23)ncc1C(F)(F)F [Example 121, N^2-imidazo[1,2-a]pyridin-5-yl-N^4-methyl-5-(trifluoromethyl)pyrimidine-2,4-diamine]	≥ 200
CC(C)Nc1nc(Nc2cccc3c2cnn3CC#N)ncc1C(F)(F)F [Example 110, 2-(4-((4-(isopropylamino)-5-(trifluoromethyl)pyrimidin-2-yl)amino)-1H-indazol-1-yl)acetonitrile]	≥ 200
CNc1nc(Nc2ccc3cn(C)nc3c2OC)ncc1C(F)(F)F [Example 20, N2-(7-methoxy-2-methyl-2H-indazol-6-yl)-N4-methyl-5-(trifluoromethyl)pyrimidine-2,4-diamine]	< 50
COCCNc1nc(Nc2cccc3c2cnn3C(C)(C)C#N)ncc1C(F)(F)F [Example 155, 2-[4-[[4-(2-methoxyethylamino)-5-(trifluoromethyl)pyrimidin-2-yl]amino]indazol-1-yl]-2-methyl-propanenitrile]	< 50
CNc1nc(Nc2ccc(C(C)CC(=O)N3CCOCC3)c3c2cnn3C)ncc1C(F)(F)F (stereo not shown) [Example 60, 3-(1-methyl-4-((4-(methylamino)-5-(trifluoromethyl)pyrimidin-2-yl)amino)-1H-indazol-7-yl)-1-morpholinobutan-1-one]	< 50
CS(=O)(=O)CCn1ncc2c(Nc3ncc(C(F)(F)F)c(NC4CCC4)n3)cccc21 [Example 163, N^4-cyclobutyl-N^2-(1-(2-(methylsulfonyl)ethyl)-1H-indazol-4-yl)-5-(trifluoromethyl)pyrimidine-2,4-diamine]	< 50
CNc1nc(Nc2cccc3c2cnn3C(C)(C)C#N)ncc1C(F)(F)F [Example 31, 2-methyl-2-(4-((4-(methylamino)-5-(trifluoromethyl)pyrimidin-2-yl)amino)-1H-indazol-1-yl)propanenitrile]	< 50
CNc1nc(Nc2ccc(C3=CCN(C)CC3)c3c2cnn3CC(N)=O)ncc1C(F)(F)F [Example 100, 2-(7-(1-methyl-1,2,3,6-tetrahydropyridin-4-yl)-4-((4-(methylamino)-5-(trifluoromethyl)pyrimidin-2-yl)amino)-1H-indazol-1-yl)acetamide]	< 50
CNc1nc(Nc2ccc(Cl)c3c2cnn3CC#N)ncc1C(F)(F)F [Example 111, 2-(7-chloro-4-((4-(methylamino)-5-(trifluoromethyl)pyrimidin-2-yl)amino)-1H-indazol-1-yl)acetonitrile]	< 50
CNc1nc(Nc2c(F)ccc3nn(C)cc23)ncc1C(F)(F)F [Example 41, N2-(5-fluoro-2-methyl-2H-indazol-4-yl)-N4-methyl-5-(trifluoromethyl) pyrimidine-2,4-diamine]	≥ 200
CCNc1nc(Nc2cccc3c2cnn3CC(F)F)nc2[nH]cc(Cl)c12 [Example 147, 5-chloro-N^2-(1-(2,2-difluoroethyl)-1H-indazol-4-yl)-N^4-ethyl-7H-pyrrolo[2,3-d]pyrimidine-2,4-diamine]	< 50
CNc1nc(Nc2cccc3[nH]ncc23)ncc1C(F)(F)F [Example 21, N2-(1H-indazol-4-yl)-N4-methyl-5-(trifluoromethyl)pyrimidine-2,4-diamine]	< 50
CNc1nc(Nc2ccc(/C(C)=C/C(=O)N3CCOCC3)c3c2cnn3C)ncc1C(F)(F)F [Example 59, (E)-3-(1-methyl-4-((4-(methylamino)-5-(trifluoromethyl)pyrimidin-2-yl)amino)-1H-indazol-7-yl)-1-morpholinobut-2-en-1-one]	< 50
CNc1nc(Nc2cccc3c2cnn3C(=O)N2CCOCC2)ncc1C(F)(F)F [Example 32, (4-((4-(methylamino)-5-(trifluoromethyl)pyrimidin-2-yl)amino)-1H-indazol-1-yl)(morpholino)methanone]	< 50
CNc1nc(Nc2ccc3cn[nH]c3c2OC)ncc1C(F)(F)F [Example 4, N2-(7-methoxy-1H-indazol-6-yl)-N4-methyl-5-(trifluoromethyl)pyrimidine-2,4-diamine]	50 to 200
CNc1nc(Nc2ccc(F)c3c2cnn3CC#N)ncc1C(F)(F)F [Example 85, 2-(7-fluoro-4-((4-(methylamino)-5-(trifluoromethyl)pyrimidin-2-yl)amino)-1H-indazol-1-yl)acetonitrile]	< 50
CC(C)(C)n1ncc2c(Nc3ncc(C(F)(F)F)c(NC4CC4)n3)cccc21 [Example 196, N^2-(1-tert-butylindazol-4-yl)-N^4-cyclopropyl-5-(trifluoromethyl)pyrimidine-2,4-diamine]	< 50
FC(F)(F)c1cnc(Nc2ccc3c4c2cnn4CCO3)nc1NC1CC1 [Example 179, N^4-cyclopropyl-N^2-(2,3-dihydro-[1,4]oxazino[2,3,4-hi]indazol-7-yl)-5-(trifluoromethyl)pyrimidine-2,4-diamine]	< 50

SMILES	IC50 [nM]
CNc1nc(Nc2ccc3cn[nH]c3c2)ncc1C(F)(F)F [Example 1, N2-(1H-indazol-6-yl)-N4-methyl-5-(trifluoromethyl)pyrimidine-2,4-diamine]	< 50
CC(C)Nc1nc(Nc2ccc3c4c2cnn4CCO3)ncc1C(F)(F)F [Example 180, N^4-isopropyl-N^2-(9-oxa-1,2-diazatricyclo[6.3.1.04,12]dodeca-2,4,6,8(12)-tetraen-5-yl)-5-(trifluoromethyl)pyrimidine-2,4-diamine]	< 50
CNc1nc(Nc2ccc(C3=CCOCC3)c3c2cnn3C)ncc1C(F)(F)F [Example 86, N2-(7-(3,6-dihydro-2H-pyran-4-yl)-1-methyl-11H-indazol-4-yl)-N4-methyl-5-(trifluoromethyl)pyrimidine-2,4-diamine]	< 50
FCCNc1nc(Nc2cccc3c2cnn3CC(F)F)ncc1C(F)(F)F [Example 142, N^2-[1-(2,2-difluoroethyl)indazol-4-yl]-N^4-(2-fluoroethyl)-5-(trifluoromethyl) pyrimidine-2,4-diamine]	< 50
CNc1nc(Nc2cc(CC#N)cc3c2cnn3C)ncc1C(F)(F)F [Example 51, 2-(1-methyl-4-((4-(methylamino)-5-(trifluoromethyl)pyrimidin-2-yl)amino)-1H-indazol-6-yl)acetonitrile]	< 50
COCCn1ncc2c(Nc3ncc(C(F)(F)F)c(NC4CC4)n3)cccc21 [Example 133, N^4-cyclopropyl-N^2-[1-(2-methoxyethyl)indazol-4-yl]-5-(trifluoromethyl) pyrimidine-2,4-diamine]	< 50
CNc1nc(Nc2cccc3nncn23)ncc1C(F)(F)F [Example 124, N^4-methyl-N^2-([1,2,4]triazolo[4,3-a]pyridin-5-yl)-5-(trifluoromethyl) pyrimidine-2,4-diamine]	≥ 200
CN(C)c1nc(Nc2cccc3c2cnn3CC#N)ncc1C(F)(F)F [Example 107, 2-(4-((4-(dimethylamino)-5-(trifluoromethyl)pyrimidin-2-yl)amino)-1H-indazol-1-yl)acetonitrile]	< 50
CNc1nc(Nc2cccc3c2cnn3C)ncc1C(F)(F)F [Example 29, N4-methyl-N2-(1-methyl-1H-indazol-4-yl)-5-(trifluoromethyl)pyrimidine-2,4-diamine]	< 50
CNc1nc(Nc2cc(/C=C/C(=O)N3CCOCC3)cc3c2cnn3C)ncc1C(F)(F)F [Example 46, (E)-3-(1-methyl-4-((4-(methylamino)-5-(trifluoromethyl)pyrimidin-2-yl)amino)-1H-indazol-6-yl)-1-morpholinoprop-2-en-1-one]	< 50
CNc1cc(Nc2nn(C)c3ncncc23)ncc1C(F)(F)F [Example 128, N^4-methyl-N^2-(1-methyl-1H-pyrazolo[3,4-d]pyrimidin-3-yl)-5-(trifluoromethyl)pyridine-2,4-diamine]	50 to 200
CCn1ncc2c(Nc3ncc(C(F)(F)F)c(NC4CC4)n3)cccc21 [Example 99, N4-cyclopropyl-N2-(1-ethyl-1H-indazol-4-yl)-5-(trifluoromethyl)pyrimidine-2,4-diamine]	< 50
CNc1nc(Nc2ccc3cnn(C)c3c2)ncc1C(F)(F)F [Example 12, N4-methyl-N2-(1-methyl-1H-indazol-6-yl)-5-(trifluoromethyl)pyrimidine-2,4-diamine]	< 50
N#CCn1ncc2c(Nc3ncc(C(F)(F)F)c(NCC(F)(F)F)n3)cccc21 [Example 106, 2-(4-((4-((2,2,2-trifluoroethyl)amino)-5-(trifluoromethyl)pyrimidin-2-yl)amino)-1-indazol-1-yl)acetonitrile]	< 50
CNc1nc(Nc2cc(CC#N)cc3[nH]ncc23)ncc1C(F)(F)F [Example 50, 2-(4-((4-(methylamino)-5-(trifluoromethyl)pyrimidin-2-yl)amino)-1H-indazol-6-yl)acetonitrile]	< 50
CCNc1nc(Nc2cccc3c2cnn3CC(C)(C)O)ncc1C(F)(F)F [Example 164, 1-[4-[[4-(ethylamino)-5-(trifluoromethyl)pyrimidin-2-yl]amino]indazol-1-yl]-2-methyl-propan-2-ol]	< 50
CC(C)(C#N)n1ncc2c(Nc3ncc(C(F)(F)F)c(NC4CC(O)C4)n3)cccc21 (stereo not shown) [Example 157, 2-[4-[[4-[(3-hydroxycyclobutyl)amino]-5-(trifluoromethyl)pyrimidin-2-yl]amino]indazol-1-yl]-2-methyl-propanenitrile]	< 50
CNc1nc(Nc2ccc(C3=CCN(C)CC3)c3c2cnn3C)ncc1C(F)(F)F [Example 81, N4-methyl-N2-(1-methyl-7-(1-methyl-1,2,3,6-tetrahydropyridin-4-yl)-1H-indazol-4-yl)-5-(trifluoromethyl)pyrimidine-2,4-diamine]	< 50

Source: patent US20240174647A1 (NEURON23, INC., priority 2022, published 2024)
